Measurements as given in ChEMBL document CHEMBL4002613, “Shape-based virtual screening, synthesis and evaluation of novel pyrrolone derivatives as antiviral agents against HCV” (Bioorg Med Chem Lett, 2017).

Experiments:
[1] = test system: Hepatitis C virus; test: Antiviral activity against Hepatitis C virus genotype 1b infected in human HuH5.2 cells after 72 hrs by luciferase reporter gene assay; format: functional, cell-based, Hepacivirus hominis
[2] = (§1) Cytotoxicity against human HuH5.2 cells assessed as anti-metabolic effect after 72 hrs by MTT assay; format: ADME, cell-based, Huh-5-2; settings: HuH5.2 (Huh-5-2) cells
[3] = Selectivity index, ratio of CC50 for human HuH5.2 cells to EC50 for Hepatitis C virus genotype 1b infected in human HuH5.2 cells; format: toxicity, cell-based; settings: for selectivity ratio: HuH5.2 cells, read-out: Ratio CC50/EC50
[4] = Inhibition of Hepatitis C virus genotype 1b NS3 helicase unwinding activity using fluorescent DNA substrate by molecular beacon assay; design: species or system Hepatitis C virus subtype 1b
[5] = Inhibition of Hepatitis C virus genotype 1b Con1 NS3 helicase ATP hydrolysis activity using ATP as substrate in presence of poly U RNA; design: species or system Hepatitis C virus (isolate Con1)
[6] = test system: Huh-5-2; test: as §1; format: ADME, cell-based; settings: huh-5-2, 72 h, 72 h
[7] = Hepatitis C virus, genotype 1b, Huh-5-2, 72 h

For N=c1c(S(=O)(=O)c2ccc(Cl)cc2)cc2c(=O)n3ccccc3nc2n1CCN1CCOCC1, the EC50 [1, 7] was 28 µM, the EC90 [1, 7] was 97.6 µM and the CC50 at 72 h [2] was 151 µM. For the same molecule, the selectivity ratio [3] was 5.4.
Cc1ccc2nc(-c3ccc4nc(-c5ccc(N)cc5)sc4c3)sc2c1S(=O)(=O)O gave an IC50 [4] of 10 µM.
In the case of Oc1c(CN2CCOCC2)cc(CN2CCOCC2)cc1CN1CCOCC1, the EC50 [1, 7] is reported as > 255 µM, the EC90 [1, 7] is reported as > 255 µM and the CC50 at 72 h [2] is reported as > 255 µM.
Molecule CCOC(=O)c1ccc(/C=C2/C=C(c3ccccc3)N(c3ccc(C)cc3C)C2=O)cc1 has an EC50 [1, 7] of 0.8 to 43.1 µM, a CC50 at 72 h [2] of 47 to 90.8 µM and a selectivity ratio [3] of 2.1 to 58.8. For the same molecule, the IC50 [4] was > 1000 µM.
Molecule CCOC(=O)c1ccc(/C=C2/C=C(c3ccccc3)N(c3ccccc3)C2=O)cc1 has an EC50 [1, 7] of 27.2 µM, an EC90 [1, 7] of 100 µM and a CC50 at 72 h [2] of 112 µM. The selectivity ratio [3] was 4 and the IC50 [4] was > 1000 µM.
With CN1CCN(CC2=C(O)C(=O)N(CCc3ccccc3)C3C=CC=CN23)CC1 (configuration not stated) the EC50 [1, 7] was 235 µM, the EC90 [1, 7] was > 264 µM and the CC50 at 72 h [2] was > 264 µM.
For Cc1ccc(N2C(=O)/C(=C\c3ccccc3)C=C2c2ccccc2)c(Br)c1, the EC50 [1, 7] was 4.1 µM, the EC90 [1, 7] was 12.4 µM and the CC50 at 72 h [2] was > 240 µM. For the same molecule, the selectivity ratio [3] was > 58, the IC50 [4] was > 1000 µM and the IC50 [5] was 620 µM.
O=C1/C(=C\c2ccc(Br)cc2)C=C(c2ccccc2)N1c1ccccc1 showed an EC50 [1, 7] of 4.3 µM, an EC90 [1, 7] of 11.6 µM and a CC50 at 72 h [2] of 25.7 µM. For the same molecule, the selectivity ratio [3] was 6 and the IC50 [4] was > 1000 µM.
Work on O=C1/C(=C\c2ccc(-c3ccccc3)cc2)C=C(c2ccccc2)N1c1ccccc1 yielded an EC50 [1, 7] of 16.1 µM, an EC90 [1, 7] of 61.7 µM and a CC50 at 72 h [2] of 156 µM. For the same molecule, the selectivity ratio [3] was 9.7 and the IC50 [4] was > 1000 µM.
For CN(C)c1ccc(/C=C2\C(=O)N(c3ncc(-c4ccc(Cl)cc4)s3)N=C2c2ccccc2)cc1, the EC50 [1, 7] was 147 µM, the EC90 [1, 7] was > 206 µM and the CC50 at 72 h [2] was > 206 µM. The selectivity ratio [3] was > 1.4.
Work on O=C1/C(=C\c2ccccc2)C=C(c2ccccc2)N1c1ccccc1 yielded an EC50 [1, 7] of 4.7 µM, an EC90 [1, 7] of 14 µM and a CC50 at 72 h [2] of 30.3 µM. For the same molecule, the selectivity ratio [3] was 6.4 and the IC50 [4] was > 1000 µM.
In the case of COc1ccc(/C=C2/C=C(c3ccccc3)N(c3ccccc3)C2=O)cc1, the EC50 [1, 7] is reported as 5.9 µM, the EC90 [1, 7] is reported as 21.6 µM and the CC50 at 72 h [2] is reported as 97.2 µM. The selectivity ratio [3] was 18 and the IC50 [4] was 438 µM.
For CCOC(=O)c1ccc(/C=C2/C=C(c3ccccc3)N(c3ccc(C)cc3)C2=O)cc1, the EC50 [1, 7] was 22.5 µM, the EC90 [1, 7] was 81.1 µM and the CC50 at 72 h [2] was > 244 µM. The selectivity ratio [3] was > 11 and the IC50 [4] was > 1000 µM.
CN1CCN(Cc2c3c(c(CN4CCN(C)CC4)c4c2CCC4)CCC3)CC1 showed an EC50 [1, 7] of 7.7 µM, a CC50 at 72 h [2] of 36.9 µM and a selectivity ratio [3] of 4.8.
In the case of CCOC(=O)c1ccc(/C=C2\C=C(c3ccccc3)N(c3ccc(C)cc3Br)C2=O)cc1 (stereo in doubt; form 1), the EC90 [1] is reported as 149 µM, the EC50 [1, 7] is reported as 38 to 38.3 µM and the CC50 at 72 h [2] is reported as 204 to 205 µM.
With CCOC(=O)c1ccc(/C=C2\C=C(c3ccccc3)N(c3ccc(C)cc3Br)C2=O)cc1 (stereo in doubt; form 2) the EC50 [1] was 20.3 µM, the EC90 [1] was 61.7 µM and the CC50 [6] was > 205 µM. The “Ratio CC50/EC50” value [3] was > 10 and the IC50 [4] was > 1000 µM.
O=C(O)C1=CC(=C(c2ccc(O)c(C(=O)O)c2)c2ccc(O)c(C(=O)O)c2)C=CC1=O [AURINTRICARBOXYLIC ACID] gave an IC50 [4] of 0.3 µM.
